# Experimental data reported in US10770169B2, “Method of providing a treatment to a subject based on a dynamic pathway map” (THE REGENTS OF THE UNIVERSITY OF CALIFORNIA, priority 2010, dated 2020).
# “Also recorded” adds a separate entry of the source.
# Assays:
# Assay type in all cases: cell-based, human
# [1] = system: luminal, basal, claudin-low and ERBB2AMP breast cancer cell lines; test: Associations of clinically relevant subtypes and response (non-parametric ANOVA or t-test on GI50 ranks)
# Outline: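 Significance was set at FDR p<0.20 after combining p-values across three test sets. Subtype–response associations came from rank-based non-parametric ANOVA or t-tests on GI50. For three-class comparisons, post-hoc tests of each group against the rest identified the most sensitive group, with FDR correction.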
# [2] = system: panel of 55 breast cancer cell lines; test: Cell growth inhibition assay (Cell Titer Glo, 72 h, 9 doses; GI50, TGI, LC50); settings: value is the negative log10 of mol/L
# [3] = system: breast cancer cell lines with aberrant vs normal copy number; test: Association of recurrent copy number changes and response (t-test on GI50); settings: FDR p<0.2
# Text: We used a t-test to assess the association between recurrent copy number changes (at 8q24 (MYC), 11q13 (CCND1), 20q13 (STK15/AURKA)) and drug sensitivity. We combined into a single group cell lines with low or no amplification and compared them to cell lines with high amplification. […] Cell lines for which the GI50 was equal to the maximum concentration tested were omitted from analysis. We omitted compounds where any group had fewer than five samples.
smiles,measurement,setting,value
CCn1cc(-c2ccnc3[nH]c(-c4cccc(CN(C)C)c4)cc23)c(-c2ccc(NC(=O)N(C)C)cc2)n1 [GSK1070916],subtype-specific response (sensitivity by transcriptional subtype),[1]; GI50 across subtypes,more active against basal and claudin-low cell lines
same,Subtype specificity,"[1]; Table 6, most sensitive subtype, FDR p<0.20",Claudin-low
same,GI50,"[2]; 600MPE cell line, censored GI50 values",5.10
same,GI50,"[2]; AU565 cell line, censored GI50 values",5.52
same,GI50,"[2]; BT474 cell line, censored GI50 values",5.19
same,GI50,"[2]; BT483 cell line, censored GI50 values",5.35
same,GI50,"[2]; CAMA1 cell line, censored GI50 values",5.05
same,GI50,"[2]; HCC38 cell line, censored GI50 values",6.44
same,GI50,"[2]; HCC70 cell line, censored GI50 values",6.59
same,GI50,"[2]; HCC202 cell line, censored GI50 values",6.03
same,GI50,"[2]; HCC1143 cell line, censored GI50 values",5.51
same,GI50,"[2]; HCC1187 cell line, censored GI50 values",7.95
same,GI50,"[2]; HCC1395 cell line, censored GI50 values",6.24
same,GI50,"[2]; HCC1419 cell line, censored GI50 values",5.18
same,GI50,"[2]; HCC1428 cell line, censored GI50 values",5.19
same,GI50,"[2]; HCC1500 cell line, censored GI50 values",5.19
same,GI50,"[2]; HCC1806 cell line, censored GI50 values",5.16
same,GI50,"[2]; HCC1937 cell line, censored GI50 values",5.42
same,GI50,"[2]; HCC1954 cell line, censored GI50 values",5.56
same,GI50,"[2]; HCC2185 cell line, censored GI50 values",6.34
same,GI50,"[2]; HCC3153 cell line, censored GI50 values",4.95
same,GI50,"[2]; MCF7 cell line, censored GI50 values",5.06
same,GI50,"[2]; MDAMB134VI cell line, censored GI50 values",5.57
same,GI50,"[2]; MDAMB157 cell line, censored GI50 values",5.95
same,GI50,"[2]; MDAMB175VII cell line, censored GI50 values",5.07
same,GI50,"[2]; MDAMB231 cell line, censored GI50 values",5.78
same,GI50,"[2]; MDAMB361 cell line, censored GI50 values",5.19
same,GI50,"[2]; MDAMB415 cell line, censored GI50 values",5.76
same,GI50,"[2]; MDAMB436 cell line, censored GI50 values",7.01
same,GI50,"[2]; MDAMB453 cell line, censored GI50 values",5.51
same,GI50,"[2]; MDAMB468 cell line, censored GI50 values",7.89
same,GI50,"[2]; SKBR3 cell line, censored GI50 values",5.29
same,GI50,"[2]; SUM149PT cell line, censored GI50 values",5.48
same,GI50,"[2]; SUM159PT cell line, censored GI50 values",5.77
same,GI50,"[2]; SUM185PE cell line, censored GI50 values",5.94
same,GI50,"[2]; SUM1315MO2 cell line, censored GI50 values",5.89
same,GI50,[2]; cell line 600MPE,5.10
same,GI50,[2]; cell line AU565,5.52
same,GI50,[2]; cell line BT474,5.19
same,GI50,[2]; cell line BT483,5.35
same,GI50,[2]; cell line CAMA1,5.05
same,GI50,[2]; cell line HCC38,6.44
same,GI50,[2]; cell line HCC70,6.59
same,GI50,[2]; cell line HCC202,6.03
same,GI50,[2]; cell line HCC1143,5.51
same,GI50,[2]; cell line HCC1187,7.95
same,GI50,[2]; cell line HCC1395,6.24
same,GI50,[2]; cell line HCC1419,5.18
same,GI50,[2]; cell line HCC1428,5.19
same,GI50,[2]; cell line HCC1500,5.19
same,GI50,[2]; cell line HCC1806,5.16
same,GI50,[2]; cell line HCC1937,5.42
same,GI50,[2]; cell line HCC1954,5.56
same,GI50,[2]; cell line HCC2185,6.34
same,GI50,[2]; cell line HCC3153,4.95
same,GI50,[2]; cell line MCF7,5.06
same,GI50,[2]; cell line MDAMB134V,5.57
same,GI50,[2]; cell line MDAMB157,5.95
same,GI50,[2]; cell line MDAMB175V,5.07
same,GI50,[2]; cell line MDAMB231,5.78
same,GI50,[2]; cell line MDAMB361,5.19
same,GI50,[2]; cell line MDAMB415,5.76
same,GI50,[2]; cell line MDAMB436,7.01
same,GI50,[2]; cell line MDAMB453,5.51
same,GI50,[2]; cell line MDAMB468,7.89
same,GI50,[2]; cell line SKBR3,5.29
same,GI50,[2]; cell line SUM52PE,6.84
same,GI50,[2]; cell line SUM149PT,5.48
same,GI50,[2]; cell line SUM159PT,5.77
same,GI50,[2]; cell line SUM185PE,5.94
same,GI50,[2]; cell line SUM1315MO,5.89
same,GI50,[2]; cell line UACC812,4.51
same,GI50,[2]; cell line UACC893,5.06
same,GI50,[2]; cell line ZR75B,5.75
same,GI50,[2]; cell line ZR751,4.94
same,GI50,[2]; cell line ZR7530,4.71
same,association of response with amplification at 11q13 (CCND1),[3],associated with sensitivity; also recorded: associated with response
same,association of response with amplification at 20q13 (STK15/AURKA),[3],"associated with resistance, rather than sensitivity"
